From US11981661B2, “Heterocyclic compounds” (Hoffmann-La Roche Inc., priority 2020, dated 2024)

Target: T1, MAGL (Homo sapiens, UniProt Q99685)
T1 sequence (Q99685 1-303): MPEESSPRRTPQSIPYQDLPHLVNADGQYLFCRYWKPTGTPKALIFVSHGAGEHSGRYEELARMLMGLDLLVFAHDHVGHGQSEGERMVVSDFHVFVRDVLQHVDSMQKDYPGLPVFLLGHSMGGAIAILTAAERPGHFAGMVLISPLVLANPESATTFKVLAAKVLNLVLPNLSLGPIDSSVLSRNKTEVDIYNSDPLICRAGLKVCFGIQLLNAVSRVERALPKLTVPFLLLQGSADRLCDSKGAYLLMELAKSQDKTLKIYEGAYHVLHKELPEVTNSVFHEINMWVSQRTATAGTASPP
Assay: 2-AG assay (MAGL inhibitory activity, hydrolysis of 2-arachidonoylglycerol followed by mass spectrometry)
Format: biochemical
Details: 50 pM MAGL, 8 μM 2-arachidonoylglycerol, 15 min preincubation, 30 min incubation at RT, concentration range 12.5 μM to 0.8 pM
Procedure, shortened: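 50 pM MAGL preincubated 15 min at RT with compound (12.5 μM to 0.8 pM) in 50 mM TRIS, 1 mM EDTA, 0.01% Tween, then 8 μM 2-arachidonoylglycerol for 30 min at RT. Arachidonic acid measured by RapidFire SPE–triple quadrupole MS in negative mode, normalised to d8-arachidonic acid.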

Compound | IC50 [nM]
O=C1CCCC(CCC(=O)N2CC(OCc3ccc(C(F)(F)F)cc3F)C2)N1 (stereo not shown) [Example 49, 6-[3-[3-[[2-Fluoro-4-(trifluoromethyl)phenyl]methoxy]azetidin-1-yl]-3-oxo-propyl]piperidin-2-one] | 605
O=C(CCCc1cnn[nH]1)N1CC(C#Cc2cccc(Cl)c2)C1 [Example 44, 1-[3-[2-(3-Chlorophenyl)ethynyl]azetidin-1-yl]-4-(1H-triazol-5-yl)butan-1-one] | 61
O=C1CCC(CCC(=O)N2C[C@@H]3CN(Cc4ccc(C(F)(F)F)cc4F)C[C@H]3C2)N1 (single isomer, unassigned; (-)) [Example 11] | ≥ 12500
CC1(CCC(=O)N2CC(OCc3ccc(C(F)(F)F)cc3F)C2)CCC(=O)N1 (single isomer, unassigned) [Example 13, (−)- or (+)-5-[3-[3-[[2-Fluoro-4-(trifluoromethyl)phenyl]methoxy]azetidin-1-yl]-3-oxo-propyl]-5-methyl-pyrrolidin-2-one] | ≥ 12500
CN(CCc1cnn[nH]1)C(=O)N1CC(c2ccc(C3(C(F)(F)F)CC3)cc2)C1 [Example 65, N-Methyl-N-[2-(1H-triazol-5-yl)ethyl]-3-[4-[1-(trifluoromethyl)cyclopropyl]phenyl] azetidine-1-carboxamide] | 2
O=C1N[C@H](CCC(=O)N2CC(c3ncc(N4CCC(C(F)(F)F)C4)cn3)C2)CO1 (stereo partly drawn) [Example 106, (4R)-4-[3-Oxo-3-[3-[5-[3-(trifluoro-methyl)pyrrolidin-1-yl]pyrimidin-2-yl]azetidin-1-yl]propyl]oxazolidin-2-one] | 729
O=C1N[C@H](CCC(=O)N2CC(c3ccc(N4CC5(CCCO5)C4)nc3)C2)CO1 [Example 172, (4R)-4-[3-[3-[6-(5-Oxa-2-azaspiro[3.4]octan-2-yl)-3-pyridyl]azetidin-1-yl]-3-oxo-propyl]oxazolidin-2-one] | 827
O=C1N[C@H](CCC(=O)N2CC3(CC(Nc4ccc(C(F)(F)F)nn4)C3)C2)CO1 [Example 151, (4R)-4-[3-Oxo-3-[6-[[6-(trifluoro-methyl)pyridazin-3-yl]amino]-2-azaspiro[3.3]heptan-2-yl]propyl] oxazolidin-2-one] | 1240
O=C1NCC(CCC(=O)N2CC(c3ccc(C4(C(F)(F)F)CC4)cc3)C2)N1 (stereo not shown) [Example 214, 4-[3-Oxo-3-[3-[4-[1-(trifluoromethyl)cyclopropyl]phenyl]azetidin-1-yl]propyl]imidazolidin-2-one] | 157
O=C1N[C@H](CCC(=O)N2CC(c3cnc(N4CC5(CCCC5)C4)cn3)C2)CO1 [Example 140, (4R)-4-[3-[3-[5-(2-Azaspiro[3.4]octan-2-yl)pyrazin-2-yl]azetidin-1-yl]-3-oxo-propyl]oxazolidin-2-one] | 28
O=C1N[C@H](CCC(=O)N2CC(c3ccc([C@H]4CC[C@@H](C(F)(F)F)CC4)nc3)C2)CO1 (single isomer, unassigned) [Example 200] | 1
O=C1N[C@H](CCC(=O)N2CC3(C2)CN(S(=O)(=O)c2ccc(F)cc2C(F)(F)F)C3)CO1 [Example 97, (4R)-4-[3-[2-[4-Fluoro-2-(trifluoromethyl)phenyl]sulfonyl-2,6-diazaspiro[3.3]heptan-6-yl]-3-oxo-propyl] oxazolidin-2-one] | 350
O=C1N[C@H](CCC(=O)N2CC(c3ccc(N4CC5(CCCC5)C4)nc3)C2)CO1 [Example 142, (4R)-4-[3-[3-[6-(2-Azaspiro[3.4]octan-2-yl)-3-pyridyl]azetidin-1-yl]-3-oxo-propyl]oxazolidin-2-one] | 13
O=C1NCC(CCC(=O)N2CC(OCc3ccc(C(F)(F)F)cc3F)C2)N1 (stereo not shown) [Example 215, 4-[3-[3-[[2-Fluoro-4-(trifluoromethyl)phenyl]methoxy]azetidin-1-yl]-3-oxo-propyl]imidazolidin-2-one] | 860
O=C1N[C@H](CCC(=O)N2CC3(C2)CN(S(=O)(=O)c2cccc(OC(F)(F)F)c2)C3)CO1 [Example 149, (4R)-4-[3-Oxo-3-[2-[3-(trifluoro-methoxy)phenyl]sulfonyl-2,6-diazaspiro[3.3]heptan-6-yl]propyl]oxazolidin-2-one] | 976
O=C1N[C@H](CCC(=O)N2CC3(CCC(Cc4ccc(OC(F)F)nc4)CC3)C2)CO1 [Example 191, (4R)-4-[3-[7-[[6-(Difluoro-methoxy)-3-pyridyl]methyl]-2-azaspiro[3.5]nonan-2-yl]-3-oxo-propyl] oxazolidin-2-one] | 37
O=C(CCCc1cnn[nH]1)N1CC(c2ccc(C3(C(F)(F)F)CC3)cc2)C1 [Example 40, 4-(1H-Triazol-5-yl)-1-[3-[4-[1-(trifluoro-methyl)cyclopropyl]phenyl]azetidin-1-yl]butan-1-one] | 21
O=C1N[C@H](CCC(=O)N2CC3(C2)CN(S(=O)(=O)c2ccccc2OC(F)(F)F)C3)CO1 [Example 148, (4R)-4-[3-Oxo-3-[2-[2-(trifluoro-methoxy)phenyl]sulfonyl-2,6-diazaspiro[3.3]heptan-6-yl]propyl]oxazolidin-2-one] | 498
CC(C)(C)c1ccc(C2CN(C(=O)CCC3CCC(=O)N3)C2)cc1 (single isomer, unassigned; (-)) [Example 3, (−)-5-[3-[3-(4-tert-Butylphenyl)azetidin-1-yl]-3-oxo-propyl]pyrrolidin-2-one] | 273

Next, values leading:

IC50 [nM] | Compound
1 | O=C1N[C@H](CCC(=O)N2CC(c3ccc(N4CC5(CCCC5)C4)cc3)C2)CO1 [Example 131]
177 | CS(=O)(=O)CC1CN(c2ccc(C3CN(C(=O)CC[C@@H]4COC(=O)N4)C3)cc2)C1 [Example 104, (4R)-4-[3-[3-[4-[3-(Methyl-sulfonylmethyl)azetidin-1-yl]phenyl]azetidin-1-yl]-3-oxo-propyl]oxazolidin-2-one]
251 | O=C1N[C@H](CCC(=O)N2CC(c3ccc(C4CCS(=O)(=O)C4)cc3)C2)CO1 (stereo partly drawn) [Example 130, (4R)-4-[3-[3-[4-(1,1-Dioxothiolan-3-yl)phenyl]azetidin-1-yl]-3-oxo-propyl] oxazolidin-2-one]
46 | CS(=O)(=O)c1cccc(CC2CC3(C2)CN(C(=O)CC[C@@H]2COC(=O)N2)C3)c1 [Example 179, (4R)-4-[3-[6-[(3-Methyl-sulfonylphenyl)methyl]-2-azaspiro[3.3]heptan-2-yl]-3-oxo-propyl]oxazolidin-2-one]
293 | COc1ccc(N(C)c2ccc(C3CN(C(=O)CC[C@@H]4COC(=O)N4)C3)cn2)nc1 [Example 92, (4R)-4-[3-[3-[6-[(5-Methoxy-2-pyridyl)-methyl-amino]-3-pyridyl]azetidin-1-yl]-3-oxo-propyl]oxazolidin-2-one]
172 | O=C1N[C@H](CCC(=O)N2CC(c3ccc(N4CC(O)(C(F)(F)F)C4)nc3)C2)CO1 [Example 144, (4R)-4-[3-[3-[6-[3-Hydroxy-3-(trifluoro-methyl)azetidin-1-yl]-3-pyridyl]azetidin-1-yl]-3-oxo-propyl]oxazolidin-2-one]
0.02 | O=C1N[C@H](CCC(=O)N2CC(c3ccc(N(c4ccccc4)c4ccccc4)cc3)C2)CO1 [Example 90, (4R)-4-[3-Oxo-3-[3-[4-(N-phenylanilino)phenyl]azetidin-1-yl]propyl] oxazolidin-2-one]
7 | O=C1N[C@H](CCC(=O)N2CC(c3ccc(N4CC(C(F)(F)F)C4)cc3)C2)CO1 [Example 100, (4R)-4-[3-Oxo-3-[3-[4-[3-(trifluoromethyl)azetidin-1-yl]phenyl]azetidin-1-yl]propyl]oxazolidin-2-one]
73 | Cc1cc(C)n(-c2ccc(C3CN(C(=O)CC[C@@H]4COC(=O)N4)C3)cc2)n1 [Example 145, (4R)-4-[3-[3-[4-(3,5-Dimethyl-pyrazol-1-yl)phenyl]azetidin-1-yl]-3-oxo-propyl]oxazolidin-2-one]
5 | O=C1N[C@H](CCC(=O)N2CC(c3ccc(S(=O)(=O)c4ccccc4)cc3)C2)CO1 [Example 74, (4R)-4-[3-[3-[4-(Benzenesulfonyl)phenyl]azetidin-1-yl]-3-oxo-propyl]oxazolidin-2-one]
5 | O=C1CCC(CCC(=O)N2CC(c3ccc(-c4ccc(F)cc4F)cc3)C2)N1 (single isomer, unassigned; (+)) [Example 10, (+)-5-[3-[3-[4-(2,4-Difluorophenyl)phenyl]azetidin-1-yl]-3-oxo-propyl]pyrrolidin-2-one]
33 | O=C1N[C@H](COC(=O)N2CC(c3ccc(Oc4ccccc4Cl)nc3)C2)CO1 [Example 60, [(4S)-2-Oxooxazolidin-4-yl]methyl 3-[6-(2-chlorophenoxy)-3-pyridyl]azetidine-1-carboxylate]
2 | O=C1N[C@H](CCC(=O)N2CC3(CC(Cc4cccc(S(=O)(=O)C(F)(F)F)c4)C3)C2)CO1 [Example 186, (4R)-4-[3-Oxo-3-[6-[[3-(trifluoro-methylsulfonyl)phenyl]methyl]-2-azaspiro[3.3]heptan-2-yl]propyl] oxazolidin-2-one]
2 | CS(=O)(=O)c1cc(Cl)ccc1-c1ccc(C2CN(C(=O)CC[C@@H]3COC(=O)N3)C2)nc1 [Example 121, (4R)-4-[3-[3-[5-(4-Chloro-2-methylsulfonyl-phenyl)-2-pyridyl]azetidin-1-yl]-3-oxo-propyl]oxazolidin-2-one]
0.02 | O=C1N[C@H](CCC(=O)N2CC(c3ccc(N(CC4CC4)c4ccccc4)cc3)C2)CO1 [Example 89, (4R)-4-[3-[3-[4-[N-(Cyclopropylmethyl)anilino]phenyl]azetidin-1-yl]-3-oxo-propyl] oxazolidin-2-one]
